Biological target: T1, HUMAN 5 LIPOXYGENASE (Homo sapiens, UniProt P09917)
T1 construct: A suspension of human neutrophils in buffer; endogenous in cells; host or cells: human neutrophils (PMNs) from venous blood of healthy volunteers
T1 sequence (P09917 1-674): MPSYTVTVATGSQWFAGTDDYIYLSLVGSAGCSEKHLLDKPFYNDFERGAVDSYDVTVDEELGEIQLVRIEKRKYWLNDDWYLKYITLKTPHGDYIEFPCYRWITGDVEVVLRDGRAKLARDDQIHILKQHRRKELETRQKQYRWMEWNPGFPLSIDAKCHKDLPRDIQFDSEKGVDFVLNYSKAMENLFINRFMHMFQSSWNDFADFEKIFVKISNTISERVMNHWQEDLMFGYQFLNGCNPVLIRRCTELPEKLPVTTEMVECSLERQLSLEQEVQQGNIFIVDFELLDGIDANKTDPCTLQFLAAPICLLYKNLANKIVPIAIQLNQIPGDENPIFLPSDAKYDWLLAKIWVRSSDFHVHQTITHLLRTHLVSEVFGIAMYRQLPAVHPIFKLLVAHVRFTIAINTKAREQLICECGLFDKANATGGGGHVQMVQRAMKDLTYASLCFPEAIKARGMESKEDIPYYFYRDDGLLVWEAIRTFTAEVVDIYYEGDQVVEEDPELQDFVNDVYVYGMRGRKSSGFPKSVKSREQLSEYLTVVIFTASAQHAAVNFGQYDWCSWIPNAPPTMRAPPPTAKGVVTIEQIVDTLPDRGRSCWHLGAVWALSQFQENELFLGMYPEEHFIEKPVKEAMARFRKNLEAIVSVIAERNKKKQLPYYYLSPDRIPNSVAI
Assay: Biosynthesis of 5-HETE by human polymorphonuclear leukocytes in vitro (inhibition of human 5-lipoxygenase)
Assay type: cell-based
Conditions: human neutrophils, A23187, 3 minutes at 30° C.; concentration at which 50% inhibition is observed; read-out: INHIBITION OF HUMAN 5 LIPOXYGENASE, I50
Protocol: Protocol for the Biosynthesis of 5-HETE (5(S)-Hydroxyeicosatetraenoic Acid) by Human Polymorphonuclear Leukocytes In Vitro
(A) Isolation of Human Neutrophils
Freshly drawn venous blood from healthy human volunteers is mixed with 2 mM ethylenediamine tetraacetic acid, and is sedimented at 1×g over 6% dextran-saline. The leukocyte layer is aspirated, and the cells are concentrated by centrifugation and are layered over stacked Percoll® solutions, having densities of 1.072, 1.082 and 1.100, respectively. PMNs are isolated at the interface between the two densest layers after centrifugation at 400×g. Contaminating red blood cells are lysed by a short treatment of 0.16M ammonium chloride.
A suspension of human neutrophils in buffer is incubated for 3 minutes at 30° C. with (^14 C)-arachidonic acid (AA) and calcium ionophore A23187. Citric Acid (2M)/NDGA*(10 mM) is used to quench the reaction. Following the addition of a trace amount of (^3 H)-5-HETE together with an excess of unlabeled 5-HETE to each tube, the mixture is extracted with chloroform/methanol. The organic layer is washed with dilute hydrochloric acid and the total volume is transferred to glass tubes and dried in vacuo. The residue is dissolved in a small volume of chloroform and is spotted on silica gel TLC sheets, which are developed with an ethyl acetate/iso-octane/water/acetic acid solvent system (11/5/10/1 v/v). The 5-HETE spots are visualized under UV light, cut out and placed in scintillation vials for quantitation of radioactivity. After adjusting for the extraction efficiency, the amount (pmole) of (^14 C)-5-HETE in each of the tubes is calculated. The net pmoles of 5-HETE are obtained by subtracting the pmole of 5-HETE in the tubes containing buffer alone (blank) from the pmoles of 5-HETE in the tubes containing […]. The ability of the test compound to modulate the activity of this enzyme is determined by a decrease or increase in the net amount of 5-HETE produced. This assay is a modification of that described by Bach and Brashler for rat peritoneal cells: Bach, M., Brashler, J.: Ionophore A23187-Induced Production of SRS-A by Rat Peritoneal Cells In Vitro: Evidence for Production by Mononuclear Cells. J. Immunol. 120 998-1005 (1978).
*NDGA-nordihydroguaiaretic acid
If the percentage of inhibition exceeds 50%, the compounds are then evaluated in terms of response over a range of concentrations. From a plot of response against concentration, the I50 value is obtained. The I50 value is the concentration at which 50% inhibition is observed.

SMILES	IC50
CCCOc1ccc(CC(=O)N[C@H](Cc2ccccc2)C(=O)OC)cc1Cl [3-Chloro-4-n-propyloxyphenylacetyl-D-phenylalanine methyl ester]	6 µM
C#CCOc1ccc(CC(=O)N[C@H](Cc2ccccc2)C(=O)OC)cc1Cl [3-Chloro-4-propargyloxyphenylacetyl-D-phenylalanine methyl ester]	1.5 µM
CN(CC(O)c1ccccc1)C(=O)Cc1ccc(OCCc2ccccc2)c(Cl)c1 (stereo not shown) [N--[3-Chloro-4-phenylethyloxyphenylacetyl]-N--methyl-2-hydroxy-2-phenyl-ethyl-amine]	10 µM
C=CCOc1ccc(CC(=O)N(C)CCc2ccccc2)cc1Cl [N--[4-Alloyoxy-3-chlorophenylacetyl]-N--methyl-2-phenylethylamine]	2 µM

Source: patent publication US4579866A, “Phenylacetamides as anti-allergy, anti-asthma and anti-inflammatory agents” (USV Pharmaceutical Corp., priority 1984, dated 1986)
